Reference: ChEMBL document CHEMBL4049411, “Rational Design, Synthesis, and Biological Evaluation of Heterocyclic Quinolones Targeting the Respiratory Chain of Mycobacterium tuberculosis” (J Med Chem, 2017)
≈ marks a conversion by molar mass, not a printed value.

Key:
[1] = (§1) Inhibition of replicating Mycobacterium tuberculosis H37Rv NDH assessed as cell growth inhibition after 7 days by MABA method; details: 168 h
[2] = Metabolic stability in human liver microsomes assessed as half life for metabolic turnover at 0.1 to 10 uM preincubated for 60 mins in presence of NADPH measured up to 60 mins by mass spectroscopic analysis; format: ADME, microsome
[3] = Metabolic stability in rat liver microsomes assessed as half life for metabolic turnover at 0.1 to 10 uM preincubated for 60 mins in presence of NADPH measured up to 60 mins by mass spectroscopic analysis; format: ADME, microsome
[4] = Metabolic stability in mouse liver microsomes assessed as half life for metabolic turnover at 0.1 to 10 uM preincubated for 60 mins in presence of NADPH measured up to 60 mins by mass spectroscopic analysis; format: ADME, microsome
[5] = test system: Mycobacterium tuberculosis H37Rv; test: as §1
HepG2 = test: Cytotoxicity against human HepG2 cells after 24 hrs in presence of glucose by MTT assay; format: cell-based; details: hepg2, 24 h
[6] = Intrinsic clearance in human microsomes; format: ADME, Microsome; details: read-out: CLH
[7] = Protein binding in human plasma at 1 uM after 18 hrs by equilibrium dialysis; format: ADME, cell-free; details: read-out: PPB (converted)
[8] = Lipophilicity, logD of compound at pH 7.4; details: buffer
[9] = Aqueous solubility of compound; format: physicochemical; details: buffer
[10] = Intrinsic clearance in rat hepatocytes assessed per million cells; format: ADME, cell-based, Hepatocyte; details: read-out: CLH

Cc1c(-c2ccc(N3CCC(Cc4ccccc4)CC3)cc2)[nH]c2ccccc2c1=O
IC50 [1]: > 10000 nM

Cc1c(-c2ccc(-n3ccc4ccccc43)cc2)[nH]c2cc(F)cc(F)c2c1=O
IC50 [1]: > 10000 nM

O=c1cc(-c2ccc(N3CCCCC3)cc2)[nH]c2ccccc12
IC50 [1]: > 10000 nM

Cc1c(-c2ccc(N3CCCC(F)(F)C3)cc2)[nH]c2cc(F)cc(F)c2c1=O
half-life at up to 10 µM [2]: 17.4 min
half-life at up to 10 µM [3]: 13.7 min
half-life at up to 10 µM [4]: 16.2 min
IC90 [5]: 830 nM
IC50 [1]: 360 to 361 nM

O=c1c(Br)c(-c2ccc(N3CCCCC3)cc2)[nH]c2ccccc12
IC50 [1]: 600 nM

Cc1c(-c2cccc(N3CCCCC3)c2)[nH]c2cc(F)cc(F)c2c1=O
IC50 [1]: > 10000 nM

Cc1c(-c2ccc(N3CCC[C@H]3COCc3ccccc3)cc2)[nH]c2cc(F)cc(F)c2c1=O
IC50 [1]: 960 nM

Cc1c(-c2ccc(N3CCC(F)CC3)cc2)[nH]c2ccccc2c1=O
IC50 [1]: > 10000 nM

COc1cc(OC)c2c(=O)c(C)c(-c3ccc(N4CCCCC4)cc3)[nH]c2c1
IC50 [1]: > 10000 nM

Cc1c(-c2ccc(-n3cccc3)c(Cl)c2)[nH]c2cc(F)cc(F)c2c1=O
IC50 [1]: > 10000 nM

COc1ccc2c(=O)c(C)c(-c3ccc(N4CCN(c5ccccc5)CC4)cc3)[nH]c2c1
IC50 [1]: > 10000 nM

Cc1c(-c2ccc(N3CCN(Cc4ccccc4)CC3)cc2)[nH]c2ccc(F)cc2c1=O
IC50 [1]: > 10000 nM

O=c1c(Cl)c(-c2ccc(N3CCCCC3)cc2)[nH]c2ccccc12
IC50 [1]: 1560 nM

Cc1c(-c2ccc(N3CCCCC3)cc2)[nH]c2cc(F)ccc2c1=O
IC50 [1]: > 10000 nM

Cc1c(-c2ccc(N3CCC(C)CC3)cc2)[nH]c2cc(F)cc(F)c2c1=O
half-life at up to 10 µM [2]: < 10 min
Activity (HepG2): > 100 µM
half-life at up to 10 µM [3]: < 10 min
half-life at up to 10 µM [4]: < 10 min
IC90 [5]: 1930 nM
IC50 [1]: 610 to 611 nM

Cc1c(-c2ccc(N3CCC[C@H](C)C3)cc2)[nH]c2cc(F)cc(F)c2c1=O
microsomal CLint [6]: > 300 µL/min/mg
half-life at up to 10 µM [2]: 8.54 min
Activity (HepG2): 85.54 µM
fraction unbound at 18 h, 1 µM [7]: 0.007
half-life at up to 10 µM [3]: 5.72 min
logD [8]: > 3.2
solubility [9]: < 0.3 µM
half-life at up to 10 µM [4]: 7.65 min
hepatocyte CLint [10]: 91.2 µL/min/1e6 cells
IC90 [5]: 660 nM
IC50 [1]: 400 to 470 nM

O=c1c(Br)c(-c2ccc(N3CCC(F)CC3)cc2)[nH]c2ccccc12
IC50 [1]: > 10000 nM

Cc1c(-c2ccc(N3CCCC(C)C3)cc2)[nH]c2cc(F)cc(F)c2c1=O (configuration not stated)
half-life at up to 10 µM [2]: 7.9 min
Activity (HepG2): > 100 µM
half-life at up to 10 µM [3]: 10.8 min
half-life at up to 10 µM [4]: 22.3 min
IC90 [5]: 630 nM
IC50 [1]: 367 to 370 nM

COc1cc2[nH]c(-c3ccc(-n4cc(F)c(F)c4)cc3)c(C)c(=O)c2cc1Cl
IC50 [1]: > 10000 nM

COc1cc2[nH]c(-c3ccc(N4CCCCC4)cc3)c(C)c(=O)c2cc1F
microsomal CLint [6]: > 300 µL/min/mg
fraction unbound at 18 h, 1 µM [7]: 0.012
logD [8]: 3.9
solubility [9]: 2 µM (≈ 0.733 µg/mL)
hepatocyte CLint [10]: 231 µL/min/1e6 cells
IC50 [1]: 520 nM

Cc1c(-c2ccc(N3CCCCCC3)cc2)[nH]c2cc(F)cc(F)c2c1=O
microsomal CLint [6]: > 300 µL/min/mg
fraction unbound at 18 h, 1 µM [7]: 0.006
logD [8]: 4.8
solubility [9]: < 0.1 µM
hepatocyte CLint [10]: 243 µL/min/1e6 cells
IC50 [1]: 490 nM

Cc1c(-c2ccc(N3CC[C@@H]3C(=O)NC(C)(C)C)cc2)[nH]c2cc(F)cc(F)c2c1=O
IC50 [1]: > 10000 nM

Cc1c(-c2ccc(N3CCCCC3)cc2)[nH]c2cc(F)cc(F)c2c1=O
half-life at up to 10 µM [2]: 7.31 min
Activity (HepG2): > 100 µM
half-life at up to 10 µM [3]: 8.3 min
half-life at up to 10 µM [4]: 8.27 min
IC90 [5]: 780 nM
IC50 [1]: 270 nM

Cc1c(-c2ccc(N3CCC(F)(F)CC3)cc2)[nH]c2cc(F)cc(F)c2c1=O
IC50 [1]: > 10000 nM

Cc1c(-c2ccc(N3CC[C@@H](F)C3)cc2)[nH]c2cc(F)cc(F)c2c1=O
microsomal CLint [6]: 175 µL/min/mg
half-life at up to 10 µM [2]: 10.2 min
Activity (HepG2): 150.6 µM
fraction unbound at 18 h, 1 µM [7]: 0.009
half-life at up to 10 µM [3]: 10.6 min
logD [8]: 3.8
solubility [9]: 0.9 µM (≈ 0.323 µg/mL)
half-life at up to 10 µM [4]: 4.4 min
hepatocyte CLint [10]: 118 µL/min/1e6 cells
IC90 [5]: 500 nM
IC50 [1]: 230 to 231 nM

Cc1c(-c2ccc(N(C)C)cc2)[nH]c2cc(F)cc(F)c2c1=O
IC50 [1]: 410 nM

Cc1c(-c2ccc(N3CCCC(C)(O)C3)cc2)[nH]c2cc(F)cc(F)c2c1=O (configuration not stated)
IC50 [1]: 5010 nM

COc1ccc2c(=O)c(C)c(-c3ccc(-n4cc(F)c(F)c4)cc3)[nH]c2c1
IC50 [1]: > 10000 nM

Cc1c(-c2ccc(N3CCC[C@@H]3CO)cc2)[nH]c2cc(F)cc(F)c2c1=O
microsomal CLint [6]: > 300 µL/min/mg
fraction unbound at 18 h, 1 µM [7]: 0.045
logD [8]: > 3.4
solubility [9]: 4 µM (≈ 1.48 µg/mL)
hepatocyte CLint [10]: 36.5 µL/min/1e6 cells
IC50 [1]: 320 nM

Cc1c(-c2ccc(N3CCN(C)CC3)cc2)[nH]c2cc(F)cc(F)c2c1=O
IC50 [1]: > 10000 nM

Cc1c(-c2ccc(-n3cccc3C#N)cc2)[nH]c2cc(F)cc(F)c2c1=O
IC50 [1]: > 10000 nM

COc1ccc2c(=O)c(C)c(-c3ccc(N4CCN(Cc5ccccc5)CC4)cc3)[nH]c2c1
IC50 [1]: > 10000 nM

Cc1c(-c2ccc(N3CCC[C@@H](C)C3)cc2)[nH]c2cc(F)cc(F)c2c1=O
microsomal CLint [6]: > 300 µL/min/mg
fraction unbound at 18 h, 1 µM [7]: 0.005
logD [8]: 4.7
solubility [9]: < 0.5 µM
hepatocyte CLint [10]: 183 µL/min/1e6 cells
IC50 [1]: 470 nM

COc1ccc2c(=O)c(Cl)c(-c3ccc(N4CCCCC4)cc3)[nH]c2c1
microsomal CLint [6]: > 300 µL/min/mg
fraction unbound at 18 h, 1 µM [7]: 0.012
logD [8]: 3.6
solubility [9]: 0.5 µM (≈ 0.184 µg/mL)
hepatocyte CLint [10]: 48.9 µL/min/1e6 cells
IC50 [1]: 2820 nM

Cc1c(-c2ccc(-n3cc(F)c(F)c3)cc2)[nH]c2cc(F)cc(F)c2c1=O
half-life at up to 10 µM [2]: ≥ 60 min
half-life at up to 10 µM [3]: ≥ 60 min
half-life at up to 10 µM [4]: ≥ 60 min
IC90 [5]: > 10000 nM
IC50 [1]: > 10000 nM

Cc1c(-c2ccc(N3CCC[C@@H]3C(=O)NC(C)(C)C)cc2)[nH]c2cc(F)cc(F)c2c1=O
IC50 [1]: 960 nM

Cc1c(-c2ccc(-n3cccn3)cc2)[nH]c2cc(F)cc(F)c2c1=O
IC50 [1]: > 10000 nM

Cc1c(-c2ccc(-n3cccc3)cc2F)[nH]c2cc(F)cc(F)c2c1=O
IC50 [1]: > 10000 nM

Cc1c(-c2ccc(N3CCC[C@@H]3C(=O)N3CCC(F)CC3)cc2)[nH]c2cc(F)cc(F)c2c1=O
IC50 [1]: > 10000 nM

COc1cc2[nH]c(-c3ccc(N4CCCCC4)cc3)c(C)c(=O)c2cc1Cl
IC50 [1]: > 10000 nM

Cc1c(-c2ccc(N3CCC4(CC3)CC4)cc2)[nH]c2cc(F)cc(F)c2c1=O
IC50 [1]: > 10000 nM

O=c1c(Cl)c(-c2ccc(N3CCC(F)CC3)cc2)[nH]c2ccccc12
IC50 [1]: > 10000 nM

COc1ccc2c(=O)cc(-c3ccc(N4CCC(F)CC4)cc3)[nH]c2c1
IC50 [1]: > 10000 nM

Cc1c(-c2ccc(N3CCCCC3)cc2)[nH]c2cc(Cl)ccc2c1=O
IC50 [1]: > 10000 nM

COc1cc2[nH]c(-c3ccc(N4CCCCC4)cc3)c(C)c(=O)c2cc1OC
IC50 [1]: > 10000 nM

Cc1c(-c2ccc(N3CCC[C@H]3CO)cc2)[nH]c2cc(F)cc(F)c2c1=O
microsomal CLint [6]: > 300 µL/min/mg
fraction unbound at 18 h, 1 µM [7]: 0.045
logD [8]: > 3.4
solubility [9]: 4 µM (≈ 1.48 µg/mL)
hepatocyte CLint [10]: 36.5 µL/min/1e6 cells
IC50 [1]: 1590 nM

COc1ccc2c(=O)c(Cl)c(-c3ccc(N4CCC(F)CC4)cc3)[nH]c2c1
IC50 [1]: > 10000 nM

Cc1c(-c2ccc(N3CCC[C@@H]3C(=O)N(C)C)cc2)[nH]c2cc(F)cc(F)c2c1=O
IC50 [1]: > 10000 nM

Cc1c(-c2ccc(NCc3ccccc3)cc2)[nH]c2cc(F)cc(F)c2c1=O
IC50 [1]: > 10000 nM

Cc1c(-c2ccc(N3CCC[C@@H]3C(=O)NC3CCOCC3)cc2)[nH]c2cc(F)cc(F)c2c1=O
IC50 [1]: > 10000 nM

Cc1c(-c2ccc(-n3cccc3)cc2)[nH]c2cccc(F)c2c1=O
IC50 [1]: 710 nM

Cc1c(-c2ccc(N3CCCCC3)cc2)[nH]c2ccc(F)cc2c1=O
IC50 [1]: 1830 nM

Cc1c(-c2ccc(N3CCC(F)CC3)cc2)[nH]c2cc(F)cc(F)c2c1=O
half-life at up to 10 µM [2]: 5.7 min
Activity (HepG2): 102.2 µM
half-life at up to 10 µM [3]: 8.4 min
half-life at up to 10 µM [4]: 4.4 min
IC90 [5]: 1830 nM
IC50 [1]: 940 to 950 nM

Cc1c(-c2ccc(N3CCC[C@@H]3C(=O)N3CCOCC3)cc2)[nH]c2cc(F)cc(F)c2c1=O
IC50 [1]: > 10000 nM

Cc1c(-c2ccc(N3CC(F)(F)C3)cc2)[nH]c2cc(F)cc(F)c2c1=O
IC50 [1]: 1530 nM

COc1ccc2c(=O)c(C)c(-c3ccc(N4CCC(Cc5ccccc5)CC4)cc3)[nH]c2c1
IC50 [1]: > 10000 nM

COc1ccc2c(=O)c(C)c(-c3ccc(N4CCC(F)CC4)cc3)[nH]c2c1
IC50 [1]: 1320 nM

Cc1c(-c2ccc(N3CCN(Cc4ccccc4)CC3)cc2)[nH]c2ccccc2c1=O
IC50 [1]: 5740 nM

COc1ccc2c(=O)cc(-c3ccc(N4CCCCC4)cc3)[nH]c2c1
IC50 [1]: > 10000 nM

Cc1c(-c2ccc(N3CC(C)(O)C3)cc2)[nH]c2cc(F)cc(F)c2c1=O
IC50 [1]: > 10000 nM

Cc1c(-c2ccc(N3CCC(Cc4ccccc4)CC3)cc2)[nH]c2ccc(F)cc2c1=O
IC50 [1]: > 10000 nM

Cc1c(-c2ccc(N3CC[C@@H]3C(=O)N(C)C)cc2)[nH]c2cc(F)cc(F)c2c1=O
IC50 [1]: > 10000 nM

Cc1c(-c2ccc(N3CCC(C(F)(F)F)CC3)cc2)[nH]c2cc(F)cc(F)c2c1=O
IC50 [1]: > 10000 nM

Cc1c(-c2ccc(N3CCC(C)(O)C3)cc2)[nH]c2cc(F)cc(F)c2c1=O (configuration not stated)
IC50 [1]: > 10000 nM
